Assay results from patent US10266497B2 (ABIDE THERAPEUTICS, INC., priority 2017, dated 2019).

Columns and labels:
[1] = target: T1, MAGL (Homo sapiens, UniProt Q99685); test: In vitro competitive activity-based protein profiling, MAGL, human; settings: for inhibition at 1 µM: read-out: MAGL % inh. 1 μM (human)
T1 sequence (Q99685 1-303): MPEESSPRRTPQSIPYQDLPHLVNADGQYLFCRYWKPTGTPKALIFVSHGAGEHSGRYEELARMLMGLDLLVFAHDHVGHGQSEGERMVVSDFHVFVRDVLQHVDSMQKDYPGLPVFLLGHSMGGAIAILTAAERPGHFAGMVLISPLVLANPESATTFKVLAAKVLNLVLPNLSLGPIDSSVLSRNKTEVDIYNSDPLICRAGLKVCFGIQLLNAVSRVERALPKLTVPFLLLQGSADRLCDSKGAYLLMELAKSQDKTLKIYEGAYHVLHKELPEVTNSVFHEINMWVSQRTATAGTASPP
Description: Biological Evaluation In Vitro Competitive Activity-Based Protein Profiling.
Proteomes (mouse brain membrane fraction for mouse assays; human prefrontal cortex membrane fractions for human assays) (50 mL, 1.0 mg/mL total protein concentration) were preincubated with varying concentrations of inhibitors at 37° C. After 30 min, FP-Rh (1.0 mL, 50 mM in DMSO) was added and the mixture was incubated for another 30 min at 37° C. Reactions were quenched with SDS loading buffer (15 μL—4λ) and run on SDS-PAGE.

[2] = target: T2, MAGL (Mus musculus, UniProt O35678); test: In vitro competitive activity-based protein profiling, MAGL, mouse; settings: read-out: MAGL % inh. 1 μM (mouse)
T2 sequence (O35678 1-303): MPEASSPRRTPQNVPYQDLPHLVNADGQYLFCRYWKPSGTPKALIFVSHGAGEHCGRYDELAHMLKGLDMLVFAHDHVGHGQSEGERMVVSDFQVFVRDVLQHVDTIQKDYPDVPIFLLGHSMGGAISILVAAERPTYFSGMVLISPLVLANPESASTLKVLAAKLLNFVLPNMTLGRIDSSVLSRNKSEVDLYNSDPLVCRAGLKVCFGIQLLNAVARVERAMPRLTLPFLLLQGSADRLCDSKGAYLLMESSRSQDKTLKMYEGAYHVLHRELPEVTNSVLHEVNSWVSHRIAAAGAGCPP

[3] = target: T3, FAAH (Homo sapiens, UniProt O00519); test: In vitro competitive activity-based protein profiling, FAAH, human; settings: for inhibition at 1 µM: read-out: FAAH % inh. 1 μM (human)
T3 sequence (O00519 1-579): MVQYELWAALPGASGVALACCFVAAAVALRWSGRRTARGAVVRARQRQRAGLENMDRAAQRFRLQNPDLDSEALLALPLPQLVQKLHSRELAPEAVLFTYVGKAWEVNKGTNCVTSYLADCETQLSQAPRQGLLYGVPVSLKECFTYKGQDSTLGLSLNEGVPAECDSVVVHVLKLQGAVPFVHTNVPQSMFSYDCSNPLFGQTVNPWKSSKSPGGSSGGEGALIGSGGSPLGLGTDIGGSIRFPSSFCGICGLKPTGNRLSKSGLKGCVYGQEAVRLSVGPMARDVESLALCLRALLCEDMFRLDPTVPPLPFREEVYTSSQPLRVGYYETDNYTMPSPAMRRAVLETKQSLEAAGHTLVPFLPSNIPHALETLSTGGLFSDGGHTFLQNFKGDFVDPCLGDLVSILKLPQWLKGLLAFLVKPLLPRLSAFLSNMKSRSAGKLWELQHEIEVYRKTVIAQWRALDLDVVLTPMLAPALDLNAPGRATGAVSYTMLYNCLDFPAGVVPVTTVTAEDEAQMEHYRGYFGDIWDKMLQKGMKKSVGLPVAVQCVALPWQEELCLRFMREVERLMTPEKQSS

[4] = target: T4, FAAH (Mus musculus, UniProt O08914); test: In vitro competitive activity-based protein profiling, FAAH, mouse; settings: read-out: FAAH % inh. 1 μM (mouse)
T4 sequence (O08914 1-579): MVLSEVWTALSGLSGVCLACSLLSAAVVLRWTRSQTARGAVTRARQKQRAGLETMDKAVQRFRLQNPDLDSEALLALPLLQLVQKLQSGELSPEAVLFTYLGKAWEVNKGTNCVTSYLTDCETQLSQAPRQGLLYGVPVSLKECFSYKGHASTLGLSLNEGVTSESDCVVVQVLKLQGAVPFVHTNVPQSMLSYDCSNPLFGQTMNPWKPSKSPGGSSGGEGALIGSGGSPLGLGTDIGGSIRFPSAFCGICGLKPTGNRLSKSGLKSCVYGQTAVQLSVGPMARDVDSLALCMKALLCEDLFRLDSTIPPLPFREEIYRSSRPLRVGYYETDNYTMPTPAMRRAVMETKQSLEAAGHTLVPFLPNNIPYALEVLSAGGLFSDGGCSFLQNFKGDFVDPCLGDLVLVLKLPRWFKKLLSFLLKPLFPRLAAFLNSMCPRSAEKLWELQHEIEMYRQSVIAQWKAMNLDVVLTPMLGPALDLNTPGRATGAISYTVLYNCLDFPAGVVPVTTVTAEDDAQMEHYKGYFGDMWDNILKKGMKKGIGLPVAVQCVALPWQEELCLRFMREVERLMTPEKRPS

[5] = target: T2, MAGL; test: Mouse brain proteomes from inhibitor treated mice (oral gavage, sacrificed 4 h after administration); assay type: in vivo; set-up: mouse brain membrane fraction for mouse assays; from tissue; host or cells: mouse brain (membrane fraction in vitro; brain proteomes of treated C57Bl/6J mice in vivo); settings: 5 mg/kg oral gavage, brain proteome 4 h after administration, read-out: MAGL % inh. 5 mg/kg (mouse)
[6] = target: T4, FAAH; test: Mouse brain proteomes from inhibitor treated mice (oral gavage, sacrificed 4 h after administration), FAAH; assay type: in vivo; set-up: mouse brain membrane fraction for mouse assays; from tissue; host or cells: mouse brain (membrane fraction in vitro; brain proteomes of treated C57Bl/6J mice in vivo); settings: 5 mg/kg oral gavage, brain proteome 4 h after administration, read-out: FAAH % inh. 5 mg/kg (mouse)

O=C(O)c1nn(C(=O)N2CCC3(CCN(Cc4cc(Cl)ccc4C(F)(F)F)C3)CC2)cc1C(F)(F)F [Example 148, 1-(2-(5-chloro-2-(trifluoromethyl)benzyl)-2,8-diazaspiro[4.5]decane-8-carbonyl)-4-(trifluoromethyl)-1H-pyrazole-3-carboxylic acid]
inhibition at 1 µM [1]: > 75%
inhibition at 1 µM [2]: > 75%
IC50 [3]: 100 to 1000 nM
inhibition at 1 µM [3]: > 75%
inhibition at 1 µM [4]: > 75%
inhibition at 5 mg/kg [5]: 0 to 25%
inhibition at 5 mg/kg [6]: 25 to 50%

O=C(O)c1ccn(C(=O)N2C[C@H]3C[C@H](OCc4cccc(C(F)(F)F)c4)C[C@H]3C2)n1 [Example 157, 1-(trans-5-((3-(trifluoromethyl)benzyl)oxy)octa-hydrocyclopenta[c]pyrrole-2-carbonyl)-1H-pyrazole-3-carboxylic acid]
inhibition at 1 µM [1]: > 75%
inhibition at 1 µM [2]: > 75%
IC50 [3]: 100 to 1000 nM
inhibition at 1 µM [3]: > 75%
inhibition at 1 µM [4]: > 75%
inhibition at 5 mg/kg [5]: 0 to 25%
inhibition at 5 mg/kg [6]: 0 to 25%

O=C(O)c1ccn(C(=O)N2C[C@H]3C[C@H](OCc4cccc(Oc5ccc(Cl)cc5)c4)C[C@H]3C2)n1 [Example 158, 1-(trans-5-((3-(4-chlorophenoxy)benzyl)oxy)octa-hydrocyclopenta[c]pyrrole-2-carbonyl)-1H-pyrazole-3-carboxylic acid]
inhibition at 1 µM [1]: > 75%
inhibition at 1 µM [2]: > 75%
inhibition at 1 µM [3]: > 75%
inhibition at 1 µM [4]: > 75%
inhibition at 5 mg/kg [5]: 0 to 25%
inhibition at 5 mg/kg [6]: 0 to 25%

Cc1c(CO[C@H]2C[C@@H]3CN(C(=O)n4ccc(C(=O)O)n4)C[C@@H]3C2)cccc1C(F)(F)F [Example 159, 1-(trans-5-((2-methyl-3-(trifluoromethyl)benzyl)oxy)octa-hydrocyclopenta[c]pyrrole-2-carbonyl)-1H-pyrazole-3-carboxylic acid]
inhibition at 1 µM [1]: > 75%
inhibition at 1 µM [2]: > 75%
IC50 [3]: 100 to 1000 nM
inhibition at 1 µM [3]: > 75%
inhibition at 1 µM [4]: > 75%
inhibition at 5 mg/kg [5]: 0 to 25%
inhibition at 5 mg/kg [6]: 0 to 25%

O=C(O)c1ccn(C(=O)N2CCC3(CCCN3Cc3cc4ccc(C(F)(F)F)cc4s3)CC2)n1 [Example 185, 1-(1-((6-(trifluoromethyl)benzo[b]thiophen-2-yl)methyl)-1,8-diazaspiro[4.5]decane-8-carbonyl)-1H-pyrazole-3-carboxylic acid]
inhibition at 1 µM [1]: > 75%
inhibition at 1 µM [2]: > 75%
inhibition at 1 µM [3]: 0 to 25%
inhibition at 1 µM [4]: 0 to 25%
inhibition at 5 mg/kg [5]: 0 to 25%
inhibition at 5 mg/kg [6]: 0 to 25%

O=C(O)c1ccn(C(=O)N2CCN(Cc3cc4cc(Cl)ccc4s3)CC2)n1 [Example 187, 1-(4-((5-chlorobenzo[b]thio-phen-2-yl)methyl)piperazine-1-carbonyl)-1H-pyrazole-3-carboxylic acid]
inhibition at 1 µM [1]: > 75%
inhibition at 1 µM [2]: > 75%
inhibition at 1 µM [3]: 25 to 50%
inhibition at 1 µM [4]: 0 to 25%
inhibition at 5 mg/kg [5]: 0 to 25%
inhibition at 5 mg/kg [6]: 0 to 25%

Cc1c(CN2CCN(C(=O)n3ccc(C(=O)O)n3)CC2)[nH]c2ccc(Cl)cc12 [Example 188, 1-(4-((5-chloro-3-methyl-1H-indol-2-yl)methyl)piperazine-1-carbonyl)-1H-pyrazole-3-carboxylic acid]
inhibition at 1 µM [1]: > 75%
inhibition at 1 µM [2]: > 75%
inhibition at 1 µM [3]: 0 to 25%
inhibition at 1 µM [4]: 0 to 25%
inhibition at 5 mg/kg [5]: 0 to 25%
inhibition at 5 mg/kg [6]: 0 to 25%

NC(=O)c1ccn(C(=O)N2CCN(Cc3cccc(C(F)(F)F)c3N3CCOCC3)CC2)n1 [Example 199, 1-(4-(2-morpholino-3-(trifluoromethyl)benzyl)piperazine-1-carbonyl)-1H-pyrazole-3-carboxamide]
inhibition at 1 µM [1]: > 75%
inhibition at 1 µM [2]: > 75%
IC50 [3]: 100 to 1000 nM
inhibition at 1 µM [3]: > 75%
inhibition at 1 µM [4]: > 75%
inhibition at 5 mg/kg [5]: > 75%
inhibition at 5 mg/kg [6]: 0 to 25%

CN(Cc1ccc(C(F)(F)F)cc1N1C2CCC1COC2)C1(C)CCN(C(=O)n2ccc(C(=O)O)n2)CC1 [Example 207, 1-(4-((2-(3-oxa-8-azabicyclo[3.2.1]octan-8-yl)-4-(trifluoromethyl)benzyl)(methyl)amino)-4-methyl-piperidine-1-carbonyl)-1H-pyrazole-3-carboxylic acid]
inhibition at 1 µM [1]: > 75%
inhibition at 1 µM [2]: > 75%
inhibition at 1 µM [3]: 0 to 25%
inhibition at 1 µM [4]: 0 to 25%
inhibition at 5 mg/kg [5]: 0 to 25%
inhibition at 5 mg/kg [6]: 0 to 25%

O=C(O)c1ccn(C(=O)N2CCC3(CCN(Cc4cccc(Oc5ccc(Cl)cc5)c4)C3)CC2)n1 [Example 210, 1-(2-(3-(4-chlorophenoxy)benzyl)-2,8-diazaspiro[4.5]decane-8-carbonyl)-1H-pyrazole-3-carboxylic acid]
IC50 [1]: 100 to 1000 nM
inhibition at 1 µM [1]: > 75%
inhibition at 1 µM [2]: > 75%
IC50 [3]: 1000 to 10000 nM
inhibition at 1 µM [3]: > 75%
inhibition at 1 µM [4]: > 75%
inhibition at 5 mg/kg [5]: 0 to 25%
inhibition at 5 mg/kg [6]: 0 to 25%

O=C(O)c1ccn(C(=O)N2CCN(Cc3cccc(Cl)c3N3CC4COCC4C3)CC2)n1 (stereo not drawn) [Example 211, 1-(4-(3-chloro-2-(tetrahydro-1H-furo[3,4-c]pyrrol-5(3H)-yl)benzyl)piperazine-1-carbonyl)-1H-pyrazole-3-carboxylic acid]
inhibition at 1 µM [1]: > 75%
inhibition at 1 µM [2]: > 75%
inhibition at 1 µM [3]: 0 to 25%
inhibition at 1 µM [4]: 0 to 25%
inhibition at 5 mg/kg [5]: 0 to 25%
inhibition at 5 mg/kg [6]: 0 to 25%

O=C(O)c1ccn(C(=O)N2CCN(Cc3cccc(Cl)c3N3C4CCC3COC4)CC2)n1 [Example 212, 1-(4-(2-(3-oxa-8-azabicyclo[3.2.1]octan-8-yl)-3-chlorobenzyl)piper-azine-1-carbonyl)-1H-pyrazole-3-carboxylic acid]
inhibition at 1 µM [1]: > 75%
inhibition at 1 µM [2]: > 75%
inhibition at 1 µM [3]: 0 to 25%
inhibition at 1 µM [4]: 0 to 25%
inhibition at 5 mg/kg [5]: 0 to 25%
inhibition at 5 mg/kg [6]: 0 to 25%
